Read-outs that look alike come from different tables or passages of the source.
Tested on: HepG2 cells
Assay: High content imaging cytotoxicity parameters: selected cell count per valid field (SCC) and CMFDA cytoplasm average intensity
Description: HepG2 cells (Order No. HB-8065, Lot. 58483209, ATCC, Manassas, USA) were cultured in DMEM/F12 with L-Glutamine and 15 mM Hepes supplemented with 10% (v/v) FBS, 1% (v/v) penicillin (10 kU/ml)/streptomycin (10 mg/ml) solution, 0.1% (v/v) gentamicin (50 mg/ml), and 1 mM sodium pyruvate at 37° C. and 5% CO2 in culture flasks. Depending on the experiment, an appropriate number of cells were seeded onto plates after detaching of the cells using trypsin and cells were cultured at 37° C. and 5% CO2 for 24 h prior to treatment. All experiments were performed three times with cells of passages 4-20.
Cells were seeded onto black Poly-D-Lysin coated 96-well-plates (BD Biocoat, Franklin Lakes, USA) (0.02×10^6 cells/well) and left 24 h for adherence and then treated with test compounds at a maximum concentration of 1 mM which is recommended by the ICH S2(R1) guideline (EMA, 2011). For each compound, nine concentrations were tested with 2-fold serial dilutions. DMSO 1% (v/v) served as vehicle control for the experiments. The treatment procedure was different for direct-genotoxic and pro-genotoxic compounds. The treatment for direct genotoxic compounds was ongoing and was repeated daily over 48 h. Pro-genotoxic compounds were incubated for 6 h together with metabolic activation system (to limit the cytotoxic effect of the S9-mixture). After this period, cells were washed with cell media followed by 18-repeated daily over 48 h. The metabolic activation system used consisted of the following components and concentrations: 8 mM MgCl2, 32.8 mM KCl, 12 mM NADPH, 124 mM phosphate buffer and 2500 pmol/ml cytochrome P450 (CYP) content in the pre-mixture corresponding to 2.4 mM MgCl2, 9.8 mM KCl, 3.6 mM NADPH, 37.2 mM phosphate buffer, and 750 pmol/ml CYP as final concentrations after dilution 1:3.33 with cell culture media.
After treatment, cells were rinsed with PBS (Gibco Invitrogen, Karlsruhe, Germany), and then stained with 10 μM CellTracker Green 5-Chloromethylfluorescein Diacetate (CMFDA) (Invitrogen, Karlsruhe, Germany) in cell culture media for 30 min. CMFDA is per se non-fluorescent and is hydrolyzed by esterase in viable cells to a fluorescent-dye. The reaction with thiol groups leads to a cell-impermeable fluorescent-dye-adduct. The esterase activity can be used as an indicator for viability of cells (Papadopoulos et al., 1994, J Immunol Methods 177, 101-11). Afterwards, cells were washed with PBS and fixed with 3.7% Formaldehyde (Sigma-Aldrich, Taufkirchen, Germany) in PBS for 20 min. After that, cells were washed with PBS and blocked and permeabilized with 2% donkey serum (Millipore, Schwalbach, Germany) and 0.25% Triton X-100 (Sigma-Aldrich, Taufkirchen, Germany) in PBS for 30 min. Primary antibodies were diluted in Blocking/Permeabilization solution to final concentrations of 4 μg/ml anti-p-Chk1 (Ser345) goat polyclonal antibody IgG (santa cruz, Santa Cruz, USA), 4 μg/ml anti-p-ATM (Ser1981) mouse monoclonal antibody IgG1K (Millipore, Schwalbach, Germany) and added to the cells. After incubation for 16-18 h, cells were washed with 0.05% Tween 20 (Calbiochem, Darmstadt, Germany) in PBS, and the secondary antibody/16 μM Hoechst staining solution Blocking/Permeabilization solution was added. Secondary antibodies were diluted 1:400 (Alexa Fluor 555 donkey anti-goat, Alexa Fluor 647 donkey anti-mouse, Invitrogen, Karlsruhe, Germany). After an incubation of 1 h, followed by two additional washing steps with 0.05% Tween 20, cells were washed with PBS and finally PBS was added and cells were measured.
Image acquisition was performed on the ArrayScan VTI HCS Reader (Cellomics, Pittsburgh, USA) using a 20× objective. To detect enough cells, 50 images starting at the middle of each well were gathered.
• Channel 1: selected cell count per valid field • Channel 2: CMFDA cytoplasm average intensity • Channel 3: p-Chk1 (Ser345) nucleus average intensity • Channel 4: p-ATM (Ser1981) nucleus average intensity

[1] = HepG2 cells, 48 h, CMFDA cytoplasm average intensity, with rat liver S9 (+S9)
[2] = HepG2 cells, 48 h, CMFDA cytoplasm average intensity, without metabolic activation (−S9)
[3] = HepG2 cells, 48 h, selected cell count per valid field, with rat liver S9 (+S9)
[4] = HepG2 cells, 48 h, selected cell count per valid field, without metabolic activation (−S9)

Compound | CMFDA +S9 highest conc. <50% cytotox. over control (human, 48 h) | CMFDA −S9 highest conc. <50% cytotox. over control (human, 48 h) | SCC +S9 highest conc. <50% cytotox. over control (human, 48 h) | SCC −S9 highest conc. <50% cytotox. over control (human, 48 h) | further results
CCCCCl [n-butyl chloride] | – | – | – | – | CMFDA +S9 highest conc. <50% cytotox. over control: 1000 µM; CMFDA −S9 highest conc. <50% cytotox. over control: 1000 µM; SCC +S9 highest conc. <50% cytotox. over control: 1000 µM; SCC −S9 highest conc. <50% cytotox. over control: 1000 µM
COC(N)=O [Methyl carbamate] | – | – | – | – | CMFDA +S9 highest conc. <50% cytotox. over control [1]: 1000 µM; CMFDA −S9 highest conc. <50% cytotox. over control [2]: 1000 µM; SCC +S9 highest conc. <50% cytotox. over control [3]: 1000 µM; SCC −S9 highest conc. <50% cytotox. over control [4]: 1000 µM
COc1cc([C@@H]2c3cc4c(cc3[C@@H](O[C@@H]3O[C@@H]5CO[C@@H](C)O[C@H]5[C@H](O)[C@H]3O)[C@H]3COC(=O)[C@H]23)OCO4)cc(OC)c1O [Etoposide] | 1000 µM | 1000 µM | 1000 µM | – | –
O=C1CCCCC1 [Cyclohexanone] | 1000 µM | 1000 µM | 1000 µM | 1000 µM | –
CC(=O)Nc1ccc2c(c1)Cc1ccccc1-2 [2-Acetylaminofluorene] | – | – | – | – | CMFDA +S9 highest conc. <50% cytotox. over control [1]: 1000 µM; CMFDA −S9 highest conc. <50% cytotox. over control [2]: 1000 µM; SCC +S9 highest conc. <50% cytotox. over control [3]: 1000 µM; SCC −S9 highest conc. <50% cytotox. over control [4]: 1000 µM
Sodium xylene sulfonate | – | – | – | – | CMFDA +S9 highest conc. <50% cytotox. over control [1]: 1000 µM; CMFDA −S9 highest conc. <50% cytotox. over control [2]: 1000 µM; SCC +S9 highest conc. <50% cytotox. over control [3]: 1000 µM; SCC −S9 highest conc. <50% cytotox. over control [4]: 1000 µM
CCCC(O)C(CC)CO (stereo not drawn) [2-Ethyl-1,3-hexanediol] | 1000 µM | 1000 µM | 1000 µM | 1000 µM | –
Cn1c(N)nc2c3cccnc3ccc21 [IQ, 2-Amino-3methylimidazo[4,5-f]quinoline] | – | – | – | – | CMFDA +S9 highest conc. <50% cytotox. over control [1]: 125 µM; CMFDA −S9 highest conc. <50% cytotox. over control [2]: 1000 µM; SCC +S9 highest conc. <50% cytotox. over control [3]: 125 µM; SCC −S9 highest conc. <50% cytotox. over control [4]: 1000 µM
NC(N)=O [Urea] | – | – | – | – | CMFDA +S9 highest conc. <50% cytotox. over control [1]: 1000 µM; CMFDA −S9 highest conc. <50% cytotox. over control [2]: 1000 µM; SCC +S9 highest conc. <50% cytotox. over control [3]: 1000 µM; SCC −S9 highest conc. <50% cytotox. over control [4]: 1000 µM
CC(C)[C@@H]1CC[C@@H](C)C[C@H]1O [D,L-menthol] | – | – | – | – | CMFDA +S9 highest conc. <50% cytotox. over control: 1000 µM; CMFDA −S9 highest conc. <50% cytotox. over control: 1000 µM; SCC +S9 highest conc. <50% cytotox. over control: 1000 µM; SCC −S9 highest conc. <50% cytotox. over control: 1000 µM
OCCNCCO [Diethanolamine] | 1000 µM | 1000 µM | 1000 µM | 1000 µM | –
CC(C)(C)c1cc(O)ccc1O [Tertiary-butylhydroquinone] | 1000 µM | 125 µM | 1000 µM | 125 µM | –
Cc1c2ccccc2c(C)c2c1ccc1ccccc12 [7,12-Dimethylbenz[a]anthracene] | – | – | – | – | CMFDA +S9 highest conc. <50% cytotox. over control (human): 1000 µM; CMFDA −S9 highest conc. <50% cytotox. over control (human): 250 µM; SCC +S9 highest conc. <50% cytotox. over control (human): 500 µM; SCC −S9 highest conc. <50% cytotox. over control (human): 125 µM
COS(C)(=O)=O [Methylmethane sulfonate] | 250 µM | 500 µM | 500 µM | 250 µM | –
NC(=S)N(C1CCCCC1)C1CCCCC1 [N,N-dicyclohexyl thiourea] | 500 µM | 1000 µM | 1000 µM | 500 µM | –
CN(C)C(=O)Nc1cccc(C(F)(F)F)c1 [Fluometron] | 1000 µM | 1000 µM | 1000 µM | 500 µM | –
OC[C@@H](O)[C@@H](O)[C@H](O)[C@H](O)CO [D-mannitol] | 1000 µM | 1000 µM | 1000 µM | 1000 µM | –
CCCCC(CC)COP(=O)(OCC(CC)CCCC)OCC(CC)CCCC (stereo not drawn) [Tris(2-ethylhexyl)phosphate] | – | – | – | – | CMFDA +S9 highest conc. <50% cytotox. over control [1]: 1000 µM; CMFDA −S9 highest conc. <50% cytotox. over control [2]: 7.813 µM; SCC +S9 highest conc. <50% cytotox. over control [3]: 1000 µM; SCC −S9 highest conc. <50% cytotox. over control [4]: 500 µM
CC[C@H]1OC(=O)[C@H](C)[C@@H](O[C@H]2C[C@@](C)(OC)[C@@H](O)[C@H](C)O2)[C@H](C)[C@@H](O[C@@H]2O[C@H](C)C[C@H](N(C)C)[C@H]2O)[C@](C)(O)C[C@@H](C)C(=O)[C@H](C)[C@@H](O)[C@]1(C)O [Erythromycin stearate] | – | 62.5 µM | – | 31.25 µM | –
c1ccncc1 [Pyridine] | – | – | – | – | CMFDA +S9 highest conc. <50% cytotox. over control (human): 1000 µM; CMFDA −S9 highest conc. <50% cytotox. over control (human): 1000 µM; SCC +S9 highest conc. <50% cytotox. over control (human): 1000 µM; SCC −S9 highest conc. <50% cytotox. over control (human): 1000 µM
Cc1noc(NS(=O)(=O)c2ccc(N)cc2)c1C [Sulfisoxazole] | 1000 µM | 1000 µM | 1000 µM | 1000 µM | –
CC(C)C=O [Isobutyraldehyde] | 1000 µM | 1000 µM | 1000 µM | 1000 µM | –
CC1(C)S[C@@H]2[C@H](NC(=O)[C@H](N)c3ccccc3)C(=O)N2[C@H]1C(=O)O [Ampicillin trihydrate] | 1000 µM | 1000 µM | 1000 µM | 1000 µM | –
CC(=O)O[C@H]1C(=O)[C@@]2(C)[C@H]([C@H](OC(=O)c3ccccc3)[C@]3(O)C[C@H](OC(=O)[C@H](O)[C@@H](NC(=O)c4ccccc4)c4ccccc4)C(C)=C1C3(C)C)[C@]1(OC(C)=O)CO[C@@H]1C[C@@H]2O [Taxol] | 1000 µM | 1000 µM | 500 µM | 1000 µM | –
Nc1nc(N)nc(N)n1 [Melamine] | – | – | – | – | CMFDA +S9 highest conc. <50% cytotox. over control [1]: 1000 µM; CMFDA −S9 highest conc. <50% cytotox. over control [2]: 1000 µM; SCC +S9 highest conc. <50% cytotox. over control [3]: 1000 µM; SCC −S9 highest conc. <50% cytotox. over control [4]: 1000 µM
C=CC(=O)OCC [Ethyl acrylate] | – | – | – | – | CMFDA +S9 highest conc. <50% cytotox. over control (human): 1000 µM; CMFDA −S9 highest conc. <50% cytotox. over control (human): 1000 µM; SCC +S9 highest conc. <50% cytotox. over control (human): 1000 µM; SCC −S9 highest conc. <50% cytotox. over control (human): 1000 µM
Nc1nc[nH]n1 [Amitrole] | 1000 µM | 1000 µM | 1000 µM | 1000 µM | –
